Consider eight compounds from PubChem BioAssay (NCI).

Some test systems named below: A549 NSCLC; BT-549 breast; CCRF-CEM leukemia; HCT-116 colon; HCT-15 colon; HL-60(TB) leukemia; HOP-62 NSCLC; HOP-92 NSCLC; IGROV1 ovarian; K-562 leukemia; MDA-MB-231 breast; MDA-N; PC-3 prostate; SF-539 CNS; SK-MEL-5 melanoma; TK-10 renal; UACC-62 melanoma; CAKI-1 renal; SK-MEL-2 melanoma.
Assay in all cases: NCI tumour cell line growth inhibition, 48 h

SMILES strings stand for the structures.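 Five concentrations, 48 hours, 96-well plates. TGI: total growth inhibition.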

Take `CCc1nc2c(n1CC)C(=O)c1ccccc1C2=O`: the TGI was above 100 µM in the experiment on A549 NSCLC; above 100 µM with BT-549 breast; above 100 µM in the experiment on CCRF-CEM leukemia; above 10 µM in the experiment on HCT-116 colon; above 100 µM in the experiment on HCT-15 colon; above 100 µM in the experiment with HL-60(TB) leukemia. For the same compound, the TGI in the experiment with HOP-62 NSCLC was above 100 µM; in the experiment on HOP-92 NSCLC it was above 100 µM; with IGROV1 ovarian, above 100 µM; with K-562 leukemia it was above 100 µM; in the experiment with MDA-MB-231 breast, 49.4 µM; in the experiment on MDA-N, above 10 µM. Also, the TGI with PC-3 prostate was 63.7 µM; in the experiment with SF-539 CNS it was above 100 µM; in the experiment on SK-MEL-5 melanoma it was above 10 µM; in the experiment with TK-10 renal, 93.1 µM; with UACC-62 melanoma, above 100 µM.
`COc1cc(/C=C2\N=C(c3ccccc3)N(c3ccc4c(c3)Sc3cc(N5C(=O)/C(=C/c6cc(OC)c(OC)c(OC)c6)N=C5c5ccccc5)ccc3N4)C2=O)cc(OC)c1OC`: the TGI in the experiment with A549 NSCLC was above 100 µM; in the experiment with BT-549 breast, 55.6 µM; in the experiment on CAKI-1 renal it was 37.1 µM; in the experiment with CCRF-CEM leukemia, 57.3 µM; with HCT-116 colon, above 100 µM; in the experiment with HCT-15 colon, above 100 µM. Further, the TGI with HL-60(TB) leukemia was 65.3 µM; in the experiment with HOP-62 NSCLC, 60.2 µM; in the experiment with HOP-92 NSCLC, 40.6 µM; with IGROV1 ovarian, 32 µM; in the experiment with K-562 leukemia, 48.4 µM; in the experiment on MDA-MB-231 breast, 67.8 µM. Further, the TGI amounted to 37.9 µM in the experiment with MDA-N; 38.3 µM in the experiment on PC-3 prostate; 36.5 µM in the experiment with SK-MEL-2 melanoma; 30.1 µM in the experiment with SK-MEL-5 melanoma; 30.9 µM in the experiment with TK-10 renal; 31.4 µM in the experiment with UACC-62 melanoma.
Regarding `CNC(=O)Nn1c(SC)nc2ccccc21`, the TGI in the experiment with A549 NSCLC, in the experiment with BT-549 breast, with CAKI-1 renal, in the experiment with CCRF-CEM leukemia, in the experiment on HCT-116 colon and in the experiment with HCT-15 colon was above 100 µM throughout. Moreover, the TGI in the experiment on HL-60(TB) leukemia, in the experiment with HOP-62 NSCLC, in the experiment on HOP-92 NSCLC, in the experiment on IGROV1 ovarian, in the experiment with K-562 leukemia and in the experiment with MDA-MB-231 breast was above 100 µM throughout. In addition, the TGI in the experiment on MDA-N, in the experiment on PC-3 prostate, in the experiment with SK-MEL-2 melanoma, in the experiment on SK-MEL-5 melanoma, in the experiment with TK-10 renal and with UACC-62 melanoma was above 100 µM throughout.
As to `O=c1[nH]ncc2[nH]c(-c3ccccc3)cc12`, the TGI in the experiment with A549 NSCLC, in the experiment on BT-549 breast, in the experiment on CAKI-1 renal, with CCRF-CEM leukemia, in the experiment with HCT-116 colon and with HCT-15 colon was above 100 µM each time. The TGI in the experiment with HL-60(TB) leukemia, with HOP-62 NSCLC, in the experiment on HOP-92 NSCLC, in the experiment with IGROV1 ovarian, with K-562 leukemia and in the experiment with MDA-MB-231 breast was above 100 µM each time. The TGI in the experiment with MDA-N is above 100 µM; with PC-3 prostate, 95.1 µM; in the experiment with SK-MEL-2 melanoma it was 71 µM; in the experiment on SK-MEL-5 melanoma, 60.5 µM; in the experiment with TK-10 renal, above 100 µM; with UACC-62 melanoma it was above 100 µM.
As for `CO[C@@H]1C[C@H]2[C@@H]3CC[C@H]([C@@H](C)COC(C)=O)[C@@]3(C)CC[C@@H]2[C@@]2(C)CC[C@H]3C[C@]312`, the TGI with A549 NSCLC amounted to 37.3 µM; with BT-549 breast, 27.2 µM; in the experiment with CAKI-1 renal it was 21.4 µM; in the experiment with CCRF-CEM leukemia it was 40.7 µM; in the experiment on HCT-116 colon, 22.2 µM; in the experiment with HCT-15 colon it was 27 µM. Besides, the TGI was 19.1 µM in the experiment with HL-60(TB) leukemia; 31.5 µM with HOP-62 NSCLC; 35.2 µM with HOP-92 NSCLC; 30.2 µM in the experiment on IGROV1 ovarian; 27.7 µM in the experiment with K-562 leukemia; 24.3 µM with MDA-MB-231 breast. Moreover, the TGI in the experiment with MDA-N came to 35.4 µM; in the experiment with PC-3 prostate, 29.6 µM; in the experiment on SF-539 CNS, 37.3 µM; in the experiment with SK-MEL-5 melanoma, 15.2 µM.
On to `Cc1ccc(C2=NN=C3C(c4ccccc4)=Nc4ccccc4N3C2)cc1`, for which the TGI in the experiment on A549 NSCLC was above 100 µM; with BT-549 breast it was above 100 µM; with CAKI-1 renal it was above 100 µM; in the experiment on HCT-116 colon, above 83.7 µM; in the experiment on HCT-15 colon, above 100 µM; in the experiment on HL-60(TB) leukemia, 9.64 µM. For the same compound, the TGI was above 63.8 µM in the experiment with HOP-62 NSCLC; above 72.9 µM in the experiment on HOP-92 NSCLC; above 100 µM in the experiment with IGROV1 ovarian; above 100 µM in the experiment on K-562 leukemia; above 100 µM in the experiment with MDA-MB-231 breast; above 100 µM in the experiment with MDA-N. For the same compound, the TGI was above 100 µM in the experiment with PC-3 prostate; above 100 µM with SF-539 CNS; above 100 µM in the experiment with SK-MEL-2 melanoma; 32.8 µM with SK-MEL-5 melanoma; 1.78 µM in the experiment on TK-10 renal; above 100 µM in the experiment on UACC-62 melanoma.
With `O=C(OC1C#CCSCC#C/C=C\1)c1cnc2ccccc2n1` (centres undefined), the TGI in the experiment on BT-549 breast, in the experiment on CCRF-CEM leukemia, with HCT-116 colon, in the experiment with HCT-15 colon, in the experiment on HL-60(TB) leukemia and with HOP-62 NSCLC was above 100 µM in each case. In addition, the TGI with HOP-92 NSCLC was above 100 µM; with IGROV1 ovarian it was above 100 µM; in the experiment with K-562 leukemia, 65.4 µM; in the experiment on MDA-MB-231 breast, above 100 µM; with MDA-N, above 100 µM; in the experiment on PC-3 prostate it was above 100 µM. Moreover, the TGI in the experiment on SF-539 CNS, with SK-MEL-2 melanoma, in the experiment on TK-10 renal and with UACC-62 melanoma was above 100 µM each time.
Turning to `O=C(O)[C@@]1(Cc2ccc(O)cc2)C[C@@H]2Cc3ccccc3N2N1`, the TGI in the experiment on A549 NSCLC, in the experiment with BT-549 breast, with CAKI-1 renal, in the experiment on CCRF-CEM leukemia, in the experiment with HCT-116 colon and in the experiment with HCT-15 colon was above 100 µM each time. The TGI in the experiment on HL-60(TB) leukemia, in the experiment with HOP-62 NSCLC, in the experiment on HOP-92 NSCLC, with IGROV1 ovarian, in the experiment with MDA-MB-231 breast and in the experiment on MDA-N was above 100 µM in each case. Further, the TGI in the experiment on PC-3 prostate, in the experiment with SF-539 CNS, in the experiment on SK-MEL-2 melanoma, with SK-MEL-5 melanoma, in the experiment on TK-10 renal and with UACC-62 melanoma was above 100 µM each time.
